From PMC7095208 (Nature, 2014)

Legend:
[1] = tested on: RAVV; details: mouse, in vivo
[2] = tested on: EBOV; details: mouse, in vivo

SMILES: Nc1ncnc2c([C@@H]3N[C@H](CO)[C@@H](O)[C@H]3O)c[nH]c12 [BCX4430, (2S,3S,4R,5R)-2-(4-amino-5H-pyrrolo[3,2-d]pyrimidin-7-yl)-5-(hydroxymethyl)pyrrolidine-3,4-diol]
- protection [1]: 75–100%
- protection (survival vs vehicle) [1]: significant protection
- protection against lethal EBOV challenge [2]: protected
